ChEMBL document CHEMBL4808235, “Identification of 6-hydroxy-5-phenyl sulfonylpyrimidin-4(1H)-one APJ receptor agonists” (Bioorg Med Chem Lett, 2021)

Experiments:
[1] = target: T1, Apelin receptor (Mus musculus, UniProt Q9WV08); test: Agonist activity at mouse APJ receptor assessed as effect on cAMP accumulation by cAMP-Glo assay
T1 sequence (Q9WV08 whole entry): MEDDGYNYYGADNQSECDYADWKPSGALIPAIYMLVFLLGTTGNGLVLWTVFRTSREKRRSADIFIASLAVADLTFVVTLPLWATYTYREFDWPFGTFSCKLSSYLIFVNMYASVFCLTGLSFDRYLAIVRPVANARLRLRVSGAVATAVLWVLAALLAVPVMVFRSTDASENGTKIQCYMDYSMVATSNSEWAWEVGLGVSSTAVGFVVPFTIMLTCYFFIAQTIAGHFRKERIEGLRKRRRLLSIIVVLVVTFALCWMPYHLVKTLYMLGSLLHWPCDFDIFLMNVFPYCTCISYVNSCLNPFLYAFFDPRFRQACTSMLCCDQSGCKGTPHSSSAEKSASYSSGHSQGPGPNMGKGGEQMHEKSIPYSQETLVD

[2] = target: T2, Apelin receptor (Rattus norvegicus, UniProt Q9JHG3); test: Agonist activity at rat APJ receptor assessed as effect on cAMP accumulation by cAMP-Glo assay; format: functional
T2 sequence (Q9JHG3 whole entry): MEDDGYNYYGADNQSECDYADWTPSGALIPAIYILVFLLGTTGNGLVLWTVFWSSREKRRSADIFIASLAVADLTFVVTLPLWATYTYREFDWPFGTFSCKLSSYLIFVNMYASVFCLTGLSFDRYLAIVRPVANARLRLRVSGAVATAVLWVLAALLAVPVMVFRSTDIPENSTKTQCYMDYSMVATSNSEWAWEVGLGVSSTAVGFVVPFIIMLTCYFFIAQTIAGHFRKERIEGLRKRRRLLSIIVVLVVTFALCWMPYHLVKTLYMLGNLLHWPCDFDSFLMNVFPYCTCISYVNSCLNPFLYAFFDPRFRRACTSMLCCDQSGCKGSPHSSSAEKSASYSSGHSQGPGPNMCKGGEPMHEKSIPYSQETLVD

[3] = Metabolic stability in human liver microsomes assessed as parent compound remaining incubated for 10 mins in presence of NADPH; format: ADME, Microsome; settings: read-out: Stabilty
[4] = Metabolic stability in mouse liver microsomes assessed as parent compound remaining incubated for 10 mins in presence of NADPH; format: ADME, Microsome; settings: read-out: Stabilty
[5] = target: T3, Apelin receptor (Homo sapiens, UniProt P35414); test: Agonist activity at human APJ receptor assessed as effect on cAMP accumulation by cAMP-Glo assay; format: functional
T3 sequence (P35414 whole entry): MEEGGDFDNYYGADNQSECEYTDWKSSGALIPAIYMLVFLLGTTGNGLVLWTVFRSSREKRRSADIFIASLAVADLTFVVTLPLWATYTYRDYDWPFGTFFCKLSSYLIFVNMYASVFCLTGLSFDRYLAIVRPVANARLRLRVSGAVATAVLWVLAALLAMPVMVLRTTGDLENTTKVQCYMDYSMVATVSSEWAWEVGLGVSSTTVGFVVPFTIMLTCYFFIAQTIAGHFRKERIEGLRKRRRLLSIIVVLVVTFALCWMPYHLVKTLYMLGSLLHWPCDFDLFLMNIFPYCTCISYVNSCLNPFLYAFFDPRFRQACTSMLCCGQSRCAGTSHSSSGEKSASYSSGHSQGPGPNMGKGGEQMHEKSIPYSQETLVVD

[6] = Metabolic stability in rat liver microsomes assessed as parent compound remaining incubated for 10 mins in presence of NADPH; format: ADME, Microsome; settings: read-out: Stabilty
[7] = Permeability of the compound at pH 5.5 by PAMPA; format: ADME; settings: read-out: permeability
[8] = Permeability of the compound at pH 7.4 by PAMPA; format: ADME; settings: read-out: permeability
[9] = system: Rattus norvegicus; test: Hemodynamic activity in Sprague-Dawley rat model of acute pressure-volume loop model assessed as increase in dP/dT at 10 mg/kg/min administered as iv infusion for 15 mins relative to control; format: functional; settings: 0.25 h
[10] = Plasma concentration in Sprague-Dawley rat model of acute pressure-volume loop model assessed as free fraction at 10 mg/kg/min administered as iv infusion for 15 mins; format: ADME, organism-based; settings: in vivo, 0.25 h
[11] = in vivo; settings: rat, po, 1 mg/kg
[12] = Plasma concentration in Sprague-Dawley rat model of acute pressure-volume loop model at 10 mg/kg/min administered as iv infusion for 5 mins; format: ADME, organism-based
[13] = in vivo; settings: cynomolgus monkey, po, 3 mg/kg
Description: AUC (0 to infinity) in cynomolgus monkey at 3 mg/kg, po

[14] = system: Rattus norvegicus; test: Hemodynamic activity in Sprague-Dawley rat model of acute pressure-volume loop model assessed as increase in cardiac output at 10 mg/kg/min administered as iv infusion for 15 mins relative to control; format: functional; settings: 0.25 h
[15] = Half life in rat at 1 mg/kg, po; format: ADME, organism-based; settings: in vivo
[16] = Cmax in cynomolgus monkey at 3 mg/kg, po; format: ADME, organism-based, Macaca fascicularis; parameters: route oral, dose 3 mg/kg; settings: in vivo
[17] = Cmax in rat at 1 mg/kg, po; format: ADME, organism-based; parameters: route oral, dose 1 mg/kg; settings: in vivo
[18] = Plasma concentration in Sprague-Dawley rat model of acute pressure-volume loop model assessed as free fraction at 10 mg/kg/min administered as iv infusion for 5 mins; format: ADME, organism-based; settings: in vivo
[19] = Toxicity activity in Sprague-Dawley rat model of acute pressure-volume loop model assessed as change in heart rate at 10 mg/kg/min administered as iv infusion for 15 mins relative to control; format: organism-based; settings: in vivo, 0.25 h
[20] = Toxicity activity in Sprague-Dawley rat model of acute pressure-volume loop model assessed as change in blood pressure at 10 mg/kg/min administered as iv infusion for 15 mins relative to control; format: organism-based; settings: in vivo, 0.25 h
[21] = Plasma concentration in Sprague-Dawley rat model of acute pressure-volume loop model at 10 mg/kg/min administered as iv infusion for 15 mins; format: ADME, organism-based
[22] = AUC (0 to 24 hrs) in rat at 1 mg/kg, po; format: ADME, organism-based; parameters: time < 24 hr, route oral, dose 1 mg/kg; settings: in vivo

SMILES | EC50 [1] | EC50 [2] | remaining at 10 min [3] | remaining at 10 min [4] | EC50 [5] | remaining at 10 min [6] | Papp [7] | Papp [8] | also measured
CCCCc1[nH]c(=O)c(S(=O)(=O)c2ccc(-c3cccnc3OC)cc2)c(O)c1-c1c(OC)cccc1OC | 0.2 nM | 0.7 nM | 72% | 24% | 0.03 nM |  |  |  | 
CCCCc1[nH]c(=O)c(S(=O)(=O)c2ccc(-n3ccccc3=O)cc2)c(O)c1-c1c(OC)cccc1OC | 2 nM | 3 nM | 100% | 75% | 0.5 nM | 100% | 17.7 ×10⁻⁶ cm/s | 0.5 ×10⁻⁶ cm/s | 
CCCCc1nc(=O)c(S(=O)(=O)c2ccc(-n3cc(Cl)ccc3=O)cc2)c(O)n1-c1c(OC)cccc1OC | 0.02 nM | 0.01 nM | 94% | 100% | 0.05 nM | 74% | 8.3 ×10⁻⁶ cm/s |  | 
CCCCc1nc(=O)c(S(=O)(=O)c2ccc(-c3cccnc3OC)cc2)c(O)n1-c1c(OC)cccc1OC | 0.03 nM | 0.02 nM | 97% | 98% | 0.01 nM | 27% | 45.6 ×10⁻⁶ cm/s |  | 
CCCCc1nc(=O)c(S(=O)(=O)c2ccc(-c3ccc(F)nc3)cc2)c(O)n1-c1c(OC)cccc1OC | 0.02 nM | 0.004 nM | 100% | 69% | 0.002 nM | 2% | 51.6 ×10⁻⁶ cm/s | 2.4 ×10⁻⁶ cm/s | 
COc1cccc(OC)c1-n1c(CCC(C)C)nc(=O)c(S(=O)(=O)c2ccc(-c3ccc(F)nc3)cc2)c1O |  | 0.03 nM | 89% | 31% |  | 1% | 24.6 ×10⁻⁶ cm/s | 3.5 ×10⁻⁶ cm/s | 
COc1cccc(OC)c1-n1c(-c2cncc(C)c2)nc(=O)c(S(=O)(=O)c2ccc(C3CC3)cc2)c1O | 5 nM | 10 nM |  |  | 5 nM |  |  |  | 
CCCCc1[nH]c(=O)c(S(=O)(=O)c2ccc(-c3ccncc3C)cc2)c(O)c1-c1c(OC)cccc1OC | 0.1 nM | 0.4 nM | 80% | 39% | 0.04 nM | 57% | 35.5 ×10⁻⁶ cm/s | 7.6 ×10⁻⁶ cm/s | 
CCCCc1nc(=O)c(S(=O)(=O)c2ccc(C3CC3)cc2)c(O)n1-c1c(OC)cccc1OC | 0.03 nM | 0.06 nM | 95% | 93% | 0.02 nM | 59% | 61.5 ×10⁻⁶ cm/s | 2.2 ×10⁻⁶ cm/s | Activity [9]: 14%; Cp(f) [10]: 12 nM; AUC(0-inf) [11]: 3.9 µM·h; concentration at 5 min [12]: 2600 nM; AUC(0-inf) [13]: 4.7 µM·h; Activity [14]: 11%; half-life [15]: 5.6 h; Cmax [16]: 1500 nM; Cmax [17]: 6200 nM; Cp(f) [18]: 5.2 nM; Activity [19]: Non-Toxic; Activity [20]: Non-Toxic; concentration at 0.25 h [21]: 5800 nM
COc1cccc(OC)c1-n1c(C2CCCC2)nc(=O)c(S(=O)(=O)c2ccc(C3CC3)cc2)c1O | 0.4 nM | 1.5 nM |  |  | 0.3 nM |  |  |  | 
CCCCc1nc(=O)c(S(=O)(=O)c2ccc(C)cc2)c(O)n1-c1c(OC)cccc1OC | 0.3 nM | 0.3 nM | 94% | 80% | 0.2 nM | 74% | 24.3 ×10⁻⁶ cm/s | 0.7 ×10⁻⁶ cm/s | 
CCCCc1[nH]c(=O)c(S(=O)(=O)c2ccc(-c3ccc(F)cc3)cc2)c(O)c1-c1c(OC)cccc1OC | 34 nM | 72 nM |  |  | 17 nM |  |  |  | 
CCCCc1[nH]c(=O)c(S(=O)(=O)c2ccc(-n3cc(Cl)ccc3=O)cc2)c(O)c1-c1c(OC)cccc1OC | 0.1 nM | 0.2 nM | 97% | 64% | 0.03 nM | 72% | 28.5 ×10⁻⁶ cm/s | 2.2 ×10⁻⁶ cm/s | 
CCCCc1nc(=O)c(S(=O)(=O)c2ccc(-n3ccccc3=O)cc2)c(O)n1-c1c(OC)cccc1OC | 0.03 nM |  | 87% | 63% | 0.02 nM | 83% | 1.2 ×10⁻⁶ cm/s | 0.1 ×10⁻⁶ cm/s | 
CCCCc1nc(=O)c(S(=O)(=O)c2ccc(-c3ccnc(NC(=O)C4CC4)c3)cc2)c(O)n1-c1c(OC)cccc1OC | 0.04 nM | 0.04 nM | 84% | 72% | 0.03 nM | 72% | 18.3 ×10⁻⁶ cm/s | 1.1 ×10⁻⁶ cm/s | AUC(0-t) at 24 h [22]: 0.6 µM·h; half-life [15]: 1.3 h; Cmax [17]: 400 nM
CCCCc1nc(=O)c(S(=O)(=O)c2ccc(-c3cccnc3)cc2)c(O)n1-c1c(OC)cccc1OC | 0.05 nM | 0.05 nM | 88% | 57% | 0.04 nM | 3% | 20.2 ×10⁻⁶ cm/s | 0.6 ×10⁻⁶ cm/s | 
CCCCc1[nH]c(=O)c(S(=O)(=O)c2ccc(-c3ccc(F)nc3)cc2)c(O)c1-c1c(OC)cccc1OC | 5 nM | 12 nM |  |  | 0.7 nM |  |  |  | 
CCCCc1nc(=O)c(S(=O)(=O)c2ccc(-c3ccc(F)cc3)cc2)c(O)n1-c1c(OC)cccc1OC | 0.1 nM | 0.02 nM | 100% | 47% | 0.08 nM | 5% | 41.8 ×10⁻⁶ cm/s | 13.2 ×10⁻⁶ cm/s | 
CCCCc1nc(=O)c(S(=O)(=O)c2ccccc2)c(O)n1-c1c(OC)cccc1OC | 1 nM | 0.9 nM | 89% | 79% | 0.5 nM | 93% | 14.1 ×10⁻⁶ cm/s | 0.15 ×10⁻⁶ cm/s | 
COc1cccc(OC)c1-n1c(COC(C)C)nc(=O)c(S(=O)(=O)c2ccc(-c3ccc(F)nc3)cc2)c1O | 0.03 nM | 0.02 nM | 84% | 90% | 0.01 nM | 30% | 7.5 ×10⁻⁶ cm/s | 0.4 ×10⁻⁶ cm/s | 
CCOCc1nc(O)c(-c2nnc(Cc3ccc(Cl)cn3)o2)c(O)c1-c1c(OC)cccc1OC [BMS-986224] | 0.027 nM |  |  |  |  |  |  |  | AUC(0-t) at 24 h [22]: 16 µM·h; AUC(0-inf) [11]: 15.5 µM·h; half-life [15]: 2.3 h; Cmax [17]: 5300 nM
